In US20100168167A1, “Piperidinones Useful in the Treatment of Inflammation” (priority 2007, published 2010):

Target: T1, PDE4 enzyme (U937 lysate or recombinant hPDE4)
T1 construct: cDNA containing PDE4D1 was cloned into a baculovirus vector, insect cells (SF9) were then infected and cells cultured to express the PDE4 protein
Assay: In vitro inhibition of PDE4, Method A ([3H]cAMP SPA enzyme assay)
Format: biochemical, human
Settings: Biological Example 1, Method A
Procedure: PDE4 U937 cytoplasmic extracts were prepared by a modified procedure of the assay described in MacKenzie, S. J. and Houslay, M. D., “Action of rolipram on specific PDE4 cAMP phosphodiesterase isoforms and on the phosphorylation of cAMP-response-element-binding protein (CREB) and p38 mitogen-activated protein (MAP) kinase in U937 monocytic cells”, Biochem J. (2000), 347(Pt 2):571-8, by lysis of U937 cells (ATCC: Catalogue No. CRL-159) in M-PER Lysis buffer (Pierce) containing 10% protease inhibitor cocktail (Sigma). The cell lysates were then centrifuged at 30,000 rpm for 15 minutes at 4° C. The supernatants were aliquoted and stored at −80° C.
An alternative source of PDE4 enzymes was from recombinant human PDE4 obtained from baculovirus-SF9 cells expression system. cDNA containing PDE4D1 was cloned into a baculovirus vector, insect cells (SF9) were then infected and cells cultured to express the PDE4 protein. The cells were lysed and used directly in assay or partially purified using standard procedures. The process can be used for other PDE4 and PDE enzymes.
Compounds of the invention were evaluated for inhibitory activity against PDE4 enzymes by the following assay Method A or B.
PDE4 assay based on modified procedure of Phosphodiesterase [^3H]cAMP SPA Enzyme Assay (Amersham Biosciences, code TRKQ 7090). In this assay, PDE4 enzymes converts [^3H]cAMP to [^3H]5′-AMP. The assay is quenched by the addition of SPA yttrium silicate beads which preferentially bind linear nucleotides over cyclic nucleotides in the presence of zinc sulphate.
Reactions were performed in duplicate by the addition of 10 μl PDE4 enzyme (U937 lysate or recombinant hPDE4) to 20 μL of assay mix and 20 μL of test compounds in Isoplates (Wallac) for 30 minutes, at 37° C. The final assay mixture contained: 50 mM Tris (pH 7.5), 8.3 mM MgCl2, 1.7 mM EGTA and [^3H]cAMP (0.025 μCi) (Amersham). Assay was terminated by addition 25 μL SPA beads. The plate was sealed, shaken for 1 minute and then allowed to settle 30 minutes and the cpm determined using a Wallac Micobeta.

Row | SMILES | IC50 [µM]
1 | COc1ccc([C@H]2CNC(=O)C(CC(=O)O)C2)cc1OC1CCCC1 (stereo partly drawn) [2-((5S)-5-(3-(cyclopentyloxy)-4-methoxyphenyl)-2-oxopiperidin-3-yl)acetic acid] | 1.19
2 | COc1ccc([C@@H]2CCC(=O)N(Cc3ccccc3)C2)cc1OC1CCCC1 [(S)-1-benzyl-5-(3-(cyclopentyloxy)-4-methoxyphenyl)piperidin-2-one] | 0.43
3 | COc1ccc([C@H]2CNC(=O)C(CC(O)CO)C2)cc1OC1CCCC1 (stereo partly drawn) [(5S)-5-(3-(cyclopentyloxy)-4-methoxyphenyl)-3-(2,3-dihydroxypropyl)piperidin-2-one] | 0.446
4 | COc1ccc2oc(C[C@H]3C[C@@H](c4ccc(OC)c(OC5CCCC5)c4)CNC3=O)cc2c1 [(3R,5S)-5-(3-cyclopentyloxy-4-methoxyphenyl)-3-(5-methoxy-2-benzofurylmethyl)piperidin-2-one] | 0.373
5 | COc1ccc([C@H]2CNC(=O)C(CCNc3ccccc3)C2)cc1OC1CCCC1 (stereo partly drawn) [(5S)-5-(3-(cyclopentyloxy)-4-methoxyphenyl)-3-(2-(phenylamino)ethyl)piperidin-2-one] | 0.215
6 | COc1ccc([C@H]2CNC(=O)/C(=C/c3cccc(C)c3)C2)cc1OC1CCCC1 [(S,E)-5-(3-(cyclopentyloxy)-4-methoxyphenyl)-3-(3-methylbenzylidene)piperidin-2-one] | 0.389
7 | COc1ccc([C@H]2CNC(=O)[C@H](Cc3cccnc3)C2)cc1OC1CCCC1 [(3S,5S)-5-(3-(cyclopentyloxy)-4-methoxyphenyl)-3-(3-pyridinylmethyl)piperidin-2-one] | 0.489
8 | C=CCC1(CC=C)C[C@@H](c2ccc(OC)c(OC3CCCC3)c2)CNC1=O [(S)-3,3-diallyl-5-(3-(cyclopentyloxy)-4-methoxyphenyl)piperidin-2-one] | 0.651
9 | COc1ccc([C@@H]2CCC(=O)N(C(=O)c3ccccc3)C2)cc1OC1CCCC1 [(S)-1-benzoyl-5-(3-(cyclopentyloxy)-4-methoxyphenyl)piperidin-2-one] | 0.187
10 | COc1ccc([C@@H]2CCC(=O)NC2)cc1-c1ccccc1 [(S)-5-(6-methoxybiphenyl-3-yl)piperidin-2-one] | 0.146
11 | COc1ccc([C@H]2CNC(=O)C(CC(=O)Nc3cccnc3)C2)cc1OC1CCCC1 (stereo partly drawn) [2-((5S)-5-(3-(cyclopentyloxy)-4-methoxyphenyl)-2-oxopiperidin-3-yl)-N-(pyridin-3-yl)acetamide] | 0.456
12 | COc1ccc([C@H]2CNC(=O)[C@@H](CC3CCOC3)C2)cc1OC1CCCC1 (stereo partly drawn) [(3R,5S)-5-(3-(cyclopentyloxy)-4-methoxyphenyl)-3-((tetrahydrofuran-3-yl)methyl)piperidin-2-one] | 1.49
13 | COc1ccc([C@H]2CNC(=O)[C@@H](Cc3nc4cc([N+](=O)[O-])ccc4o3)C2)cc1OC1CCCC1 [(3R,5S)-5-(3-cyclopentyloxy-4-methoxyphenyl)-3-(5-nitro-2-benzoxazolylmethyl)piperidin-2-one] | 0.653
14 | C=CCC1C[C@@H](c2ccc(OC)c(OC3CCCC3)c2)CNC1=O (stereo partly drawn) [(5S)-3-allyl-5-(3-(cyclopentyloxy)-4-methoxyphenyl)piperidin-2-one] | 0.29
